Tests used:
Type in all cases: in vivo
Plutella xylostella = test: Diamond back moth (Plutella xylostella) cabbage leaf dip test; details: foliar, 72 h, read-out: mortality in comparison with untreated controls
Description: The active compound was dissolved at the desired concentration in a mixture of 1:1 (vol:vol) distilled water:aceteone. Surfactant (Kinetic HV) was added at a rate of 0.01% (vol/vol). The test solution was prepared at the day of use.
Leaves of cabbage were dipped in test solution and air-dried. Treated leaves were placed in petri dishes lined with moist filter paper and inoculated with ten 3rd instar larvae. Mortality was recorded 72 hours after treatment. Feeding damages were also recorded using a scale of 0-100%.

Myzus persicae = test: Green peach aphid (Myzus persicae) systemic artificial diet test; details: 72 h, read-out: mortality in comparison with untreated controls
Text: For evaluating control of green peach aphid (Myzus persicae) through systemic means the test unit consisted of 96-well-microtiter plates containing liquid artificial diet under an artificial mem brane.
The compounds were formulated using a solution containing 75% v/v water and 25% v/v DMSO. Different concentrations of formulated compounds were pipetted into the aphid diet, using a custom built pipetter, at two replications.
After application, 5-8 adult aphids were placed on the artificial membrane inside the microtiter plate wells. The aphids were then allowed to suck on the treated aphid diet and incubated at about 23±1° C. and about 50±5% relative humidity for 3 days. Aphid mortality and fecundity was then visually assessed.

Megoura viciae = test: Vetch aphid (Megoura viciae) leaf disk test; details: foliar, 120 h, read-out: mortality in comparison with untreated controls
Description: For evaluating control of vetch aphid (Megoura viciae) through contact or systemic means the test unit consisted of 24-well-microtiter plates containing broad bean leaf disks.
The compounds were formulated using a solution containing 75% v/v water and 25% v/v DMSO. Different concentrations of formulated compounds were sprayed onto the leaf disks at 2.5 μl, using a custom built micro atomizer, at two replications.
After application, the leaf disks were air-dried and 5-8 adult aphids placed on the leaf disks inside the microtiter plate wells. The aphids were then allowed to suck on the treated leaf disks and incubated at about 23±1° C. and about 50±5% relative humidity for 5 days. Aphid mortality and fecundity was then visually assessed.

Heliothis virescens = test: Tobacco budworm (Heliothis virescens) insect diet test; details: 120 h, read-out: mortality in comparison with untreated controls
Description: For evaluating control of tobacco budworm (Heliothis virescens) the test unit consisted of 96-well-microtiter plates containing an insect diet and 15-25 H. virescens eggs.
The compounds were formulated using a solution containing 75% v/v water and 25% v/v DMSO. Different concentrations of formulated compounds were sprayed onto the insect diet at 10 μl, using a custom built micro atomizer, at two replications.
After application, microtiter plates were incubated at about 28±1° C. and about 80±5% relative humidity for 5 days. Egg and larval mortality was then visually assessed.

Anthonomus grandis = test: Boll weevil (Anthonomus grandis) insect diet test; details: 120 h, read-out: mortality in comparison with untreated controls
Description: For evaluating control of boll weevil (Anthonomus grandis) the test unit consisted of 96-well-microtiter plates containing an insect diet and 5-10 A. grandis eggs.
The compounds were formulated using a solution containing 75% v/v water and 25% v/v DMSO. Different concentrations of formulated compounds were sprayed onto the insect diet at 5 μl, using a custom built micro atomizer, at two replications.
After application, microtiter plates were incubated at about 25±1° C. and about 75±5% relative humidity for 5 days. Egg and larval mortality was then visually assessed.

Dichromothrips corbetti = test: Orchid thrips (Dichromothrips corbetti) floral-immersion test; details: 72 h, read-out: mortality in comparison with untreated controls
Description: Dichromothrips corbetti adults used for bioassay were obtained from a colony maintained continuously under laboratory conditions. For testing purposes, the test compound is diluted in a 1:1 mixture of acetone:water (vol:vol), plus Kinetic HV at a rate of 0.01% v/v.
Thrips potency of each compound was evaluated by using a floral-immersion technique. All petals of individual, intact orchid flowers were dipped into treatment solution and allowed to dry in Petri dishes. Treated petals were placed into individual re-sealable plastic along with about 20 adult thrips. All test arenas were held under continuous light and a temperature of about 28° C. for duration of the assay. After 3 days, the numbers of live thrips were counted on each petal. The percent mortality was recorded 72 hours after treatment.

Nephotettix virescens = test: Rice green leafhopper (Nephotettix virescens) rice seedling spray test; details: 72 h, read-out: mortality in comparison with untreated controls
Description: Rice seedlings were cleaned and washed 24 hours before spraying. The active compounds were formulated in 1:1 acetone:water (vol:vol), and 0.01% vol/vol surfactant (Kinetic HV) was added. Potted rice seedlings were sprayed with 5-6 ml test solution, air dried, covered with Mylar cages and inoculated with 10 adults. Treated rice plants were kept at about 28-29° C. and relative humidity of about 50-60%. Percent mortality was recorded after 72 hours.

Tetranychus kanzawai = test: Red spider mite (Tetranychus kanzawai) cowpea bean spray test; details: 72 h, read-out: mortality in comparison with untreated controls
Description: The active compound was dissolved at the desired concentration in a mixture of 1:1 (vol:vol) distilled water:acetone. Add surfactant (Kinetic HV) was added at a rate of 0.01% (vol/vol). The test solution was prepared at the day of use.
Potted cowpea beans of 4-5 days of age were cleaned with tap water and sprayed with 1-2 ml of the test solution using air driven hand atomizer. The treated plants were allowed to air dry and afterwards inoculated with 30 or more mites by clipping a cassava leaf section from rearing population. Treated plants were placed inside a holding room at about 25-27° C. and about 50-60% relative humidity. Percent mortality was assessed 72 hours after treatment.

Spodoptera eridania = test: Southern armyworm (Spodoptera eridania) lima bean foliar spray test; details: 96 h, read-out: mortality in comparison with untreated controls
Description: The active compounds were formulated in cyclohexanone as a 10,000 ppm solution supplied in tubes. The tubes were inserted into an automated electrostatic sprayer equipped with an atomizing nozzle and they served as stock solutions for which lower dilutions were made in 50% acetone:50% water (v/v). A nonionic surfactant (Kinetic®) was included in the solution at a volume of 0.01% (v/v).
Lima bean plants (variety Sieva) were grown 2 plants to a pot and selected for treatment at the 1st true leaf stage. Test solutions were sprayed onto the foliage by an automated electrostatic plant sprayer equipped with an atomizing spray nozzle. The plants were dried in the sprayer fume hood and then removed from the sprayer. Each pot was placed into perforated plastic bags with a zip closure. About 10 to 11 armyworm larvae were placed into the bag and the bags zipped closed. Test plants were maintained in a growth room at about 25° C. and about 20-40% relative humidity for 4 days, avoiding direct exposure to fluorescent light (24 hour photoperiod) to prevent trapping of heat inside the bags. Mortality and reduced feeding were assessed 4 days after treatment, compared to untreated control plants.

Nezara viridula = test: Green soldier stink bug (Nezara viridula) soybean pod spray test; details: 120 h, read-out: mortality in comparison with untreated controls
Description: The active compound was dissolved at the desired concentration in a mixture of 1:1 (vol:vol) distilled water:acetone. Surfactant (Kinetic HV) was added at a rate of 0.01% (vol/vol). The test solution was prepared at the day of use. Soybean pods were placed in glass Petri dishes lined with moist filter paper and inoculated with ten late 3rd instar N. viridula. Using a hand atomizer, approximately 2 ml solution is sprayed into each Petri dish. Assay arenas were kept at about 25° C. Percent mortality was recorded after 5 days.

Euschistus heros = test: Neotropical brown stink bug (Euschistus heros) soybean pod spray test; details: 120 h, read-out: mortality in comparison with untreated controls
Description: (§1) The active compound was dissolved at the desired concentration in a mixture of 1:1 (vol:vol) distilled water:acetone. Surfactant (Kinetic HV) was added at a rate of 0.01% (vol/vol). The test solution was prepared at the day of use.
Soybean pods were placed in microwavable plastic cups and inoculated with ten adult stage E. heros. Using a hand atomizer, approximately 1 ml solution is sprayed into each cup, insects and food present. A water source was provided (cotton wick with water). Each treatment was replicated 2-fold. Assay arenas were kept at about 25° C. Percent mortality was recorded after 5 days.

Halyomorpha halys = test: Brown marmorated stink bug (Halyomorpha halys) spray test; details: in Glycine max, 120 h, read-out: mortality in comparison with untreated controls
Description: as §1
Row peanuts and soybean seeds were placed into microwavable plastic cups and inoculated with five adult stage H. halys. Using a hand atomizer, approximately 1 ml solution is sprayed into each cup, insects and food present. A water source was provided (cotton wick with water).
Each treatment is replicated 4-fold. Assay arenas are kept at about 25° C. Percent mortality was recorded after 5 days.

CN1C(=O)CC[C@@H](NC(=O)c2ccc(C3=NOC(c4cc(Cl)c(F)c(Cl)c4)(C(F)(F)F)C3)cc2Cl)C1=O (stereo partly drawn) [Compound 1-1, 2-chloro-4[5-(3,5-dichloro-4-fluoro-phenyl)-5-(trifluoromethyl)-4H-isoxazol-3-yl]-N-[(3R)-1-methyl-2,6-dioxo-3-piperidyl]benzamide]
> 75%: mortality at 300 ppm (Plutella xylostella) | mortality at 2500 ppm (Myzus persicae) | mortality at 2500 ppm (Megoura viciae) | mortality at 2500 ppm (Heliothis virescens) | mortality at 2500 ppm (Anthonomus grandis) | mortality at 300 ppm (Dichromothrips corbetti) | mortality at 300 ppm (Nephotettix virescens) | mortality at 300 ppm (Tetranychus kanzawai) | mortality at 10 ppm (Spodoptera eridania) | mortality at 300 ppm (Nezara viridula) | mortality at 500 ppm (Euschistus heros) | mortality at 100 ppm (Halyomorpha halys)

Cc1cc(C2=NOC(c3cc(Cl)cc(Cl)c3)(C(F)(F)F)C2)ccc1C(=O)N[C@@H]1CCC(=O)N(CC(F)F)C1=O (stereo partly drawn) [Compound 1-18, 4-[5-(3,5-dichlorophenyl)-5-(trifluoromethyl)-4H-isoxazol-3-yl]-N-[(3R)-1-(2,2-difluoroethyl)-2,6-dioxo-3-piperidyl]-2-methyl-benzamide]
> 75%: mortality at 300 ppm (Plutella xylostella) | mortality at 2500 ppm (Myzus persicae) | mortality at 2500 ppm (Megoura viciae) | mortality at 2500 ppm (Heliothis virescens) | mortality at 2500 ppm (Anthonomus grandis) | mortality at 300 ppm (Dichromothrips corbetti) | mortality at 300 ppm (Nephotettix virescens) | mortality at 300 ppm (Tetranychus kanzawai) | mortality at 300 ppm (Nezara viridula) | mortality at 500 ppm (Euschistus heros) | mortality at 100 ppm (Halyomorpha halys)

Reference: patent US20210309649A1, “SUBSTITUTED GLUTARIMIDE DERIVATIVES” (BASF SE, priority 2018, published 2021)
